Results from US20170087167A1, “MODIFICATION OF DRUGS FOR INCORPORATION INTO NANOPARTICLES” (UNIVERSITY OF GEORGIA RESEARCH FOUNDATION, INC., priority 2015, published 2017).

What was measured:
[1] = tested on: TNF-α; experiment: In vivo inflammation study, LPS stimulated mouse model, serum TNF-α by ELISA; set-up: species or system BALB/c Albino male mice; conditions: 20 mg/kg (with respect to aspirin) i.v.
Description: (§1) To explore the anti-inflammatory properties of the new aspirin derivative in NP formulation in vivo, we used mice stimulated with lipopolysaccharide (LPS). […] In our studies following similar protocol in C57BL/6 or BALB/c (albino) mice, we observed enhanced levels of TNF-α and IL-6 in the serum after intraperitonial administration of 100 μg of LPS per animal and the levels peaked at 1.5 and 3 h, respectively for TNF-α and IL-6. Next, 8 week old BALB/c male mice were administered with saline or aspirin (20 mg/kg) or NT-(Asp)4-NP (20 mg/kg with respect to aspirin) or T-(Asp)4-NP (20 mg/kg with respect to aspirin) by i.v. injections and after 12 h, these animals were subsequently treated with intraperitonially injected LPS for 1.5 h and 3 h (FIG. 3A). Serum samples were isolated from the treated animals and pro-inflammatory and anti-inflammatory cytokine levels in the serum samples were evaluated by the enzyme-linked immunosorbent assay (ELISA).
(§2) Anti-inflammatory properties of T/NT-(Asp)4-NPs and aspirin were evaluated in LPS stimulated mouse model. […] The absorbance of the product formed was recorded at 450 nm using a BioTek Synergy HT well plate reader.

[2] = tested on: IL-6; experiment: In vivo inflammation study, LPS stimulated mouse model, serum IL-6 by ELISA; set-up: species or system BALB/c Albino male mice; conditions: 12 h before LPS
Description: as §1, §2

## CC(=O)Oc1ccccc1C(=O)O [aspirin, acetylsalicylic acid]
[1]; 12 h before LPS i.p., LPS for 1.5 h
  serum TNF-α level compared to only LPS: non-significant
[1]; 12 h before LPS, LPS for 3 h
  serum TNF-α level: did not show any significant differences
[2]; 20 mg/kg (with respect to aspirin) i.v., LPS for 1.5 h
  serum IL-6 level compared to only LPS: significantly reduced
[2]; 20 mg/kg i.v., LPS for 3 h
  serum IL-6 level compared to LPS alone: reduced IL-6 levels
